Source: US5254677A, “β-galactosidase substrates for cedia” (Boehringer Mannheim GmbH, priority 1990, dated 1993)

How the values were obtained:
[1] = target: T1, β-galactosidase (Escherichia coli, UniProt P00722); test: Enzyme activity: extinction change per minute with identical amounts of β-galactosidase (sensitivity and enzymatic cleavage rate of substrates); type: biochemical; details: measured at the absorption maximum of the particular chromogen (405/376/384/408 nm), 0.05M potassium phosphate buffer pH 7.0
T1 construct: not the CEDIA donor/acceptor fragments
Description: 2. Sensitivity comparison of the substrates and of their enzymatic cleavage rate.
The extinction change per minute (mE/min.) in the region of the absorption maximum (see Table 1) of the particular chromogen was determined with the use of identical amounts of the enzyme β-galactosidase: for the precise conditions see Example 4, II a) and b).
1) 0.05M potassium phosphate buffer, pH 7.0
2) 10 mmole/liter magnesium chloride solution
3) 69.8% (v/v) mercaptoethanol solution
4) p-galactosidase (Boehringer Mannheim GmbH, order No. 105 031)
5) substrate, 5.9 mg./ml. in solution a)
Pre-incubation: the following substances were pipetted into plastic cuvettes: […]
After mixing, the reaction was initiated: […]
Δ/min. was calculated from the linear range.

[2] = tested on: β-galactosidase formed from EA22 enzyme acceptor and ED4-thyroxine T4 conjugate; test: T4/CEDIA test (thyroxine T4 as hapten, monoclonal antibodies against T4), gradient of the calibration curve; type: biochemical; details: Hitachi 704, 37° C., substrate 1 mg./ml., 376 or 415 nm, percentage of 2-nitrophenyl-β-galactoside (=100%)
Description: 3. Evaluation in the T4/CEDIA (CEDIA with thyroxine T4 as hapten and monoclonal antibodies against thyroxine T4).
The criterion for the evaluation of the individual substrates was the gradient of the calibration curve.
I) Carrying out of the T4/CEDIA test
Definitions: EA=enzyme acceptor; ED=enzyme donor; EA22 =cloned enzyme acceptor for CEDIA; ED4 =cloned enzyme donor for CEDIA. […] The amino acid sequences of these polypeptides are there disclosed.
ΔE/min. was measured in the interval of 9-10 minutes.
Calibration curves were produced for all substrates. Of these curves, the gradients were compared. [formula]
Gradient expressed as percentage value of the 2-nitrophenyl-β-galactoside (=100%) for T4/CEDIA.

[3] = tested on: β-galactosidase formed from EA22 enzyme acceptor and ED4-thyroxine T4 conjugate; details: prior art substrate of U.S. Pat. No. 4,708,929; cited from earlier work
[4] = Absorption maxima of the chromogen and associated extinction coefficients; type: physicochemical; details: 0.1 mole/l. potassium phosphate buffer (pH 7.0); for ε (extinction coefficient): at the absorption maximum of the chromogen
From the text: 1. Wavelengths of the absorption maxima of the chromogen and the associated extinction coefficients (ε).
Measurement in 0.1 mole/l. potassium phosphate buffer (pH 7.0) at the absorption maximum of the chromogen.

T1 sequence (P00722 2-1024): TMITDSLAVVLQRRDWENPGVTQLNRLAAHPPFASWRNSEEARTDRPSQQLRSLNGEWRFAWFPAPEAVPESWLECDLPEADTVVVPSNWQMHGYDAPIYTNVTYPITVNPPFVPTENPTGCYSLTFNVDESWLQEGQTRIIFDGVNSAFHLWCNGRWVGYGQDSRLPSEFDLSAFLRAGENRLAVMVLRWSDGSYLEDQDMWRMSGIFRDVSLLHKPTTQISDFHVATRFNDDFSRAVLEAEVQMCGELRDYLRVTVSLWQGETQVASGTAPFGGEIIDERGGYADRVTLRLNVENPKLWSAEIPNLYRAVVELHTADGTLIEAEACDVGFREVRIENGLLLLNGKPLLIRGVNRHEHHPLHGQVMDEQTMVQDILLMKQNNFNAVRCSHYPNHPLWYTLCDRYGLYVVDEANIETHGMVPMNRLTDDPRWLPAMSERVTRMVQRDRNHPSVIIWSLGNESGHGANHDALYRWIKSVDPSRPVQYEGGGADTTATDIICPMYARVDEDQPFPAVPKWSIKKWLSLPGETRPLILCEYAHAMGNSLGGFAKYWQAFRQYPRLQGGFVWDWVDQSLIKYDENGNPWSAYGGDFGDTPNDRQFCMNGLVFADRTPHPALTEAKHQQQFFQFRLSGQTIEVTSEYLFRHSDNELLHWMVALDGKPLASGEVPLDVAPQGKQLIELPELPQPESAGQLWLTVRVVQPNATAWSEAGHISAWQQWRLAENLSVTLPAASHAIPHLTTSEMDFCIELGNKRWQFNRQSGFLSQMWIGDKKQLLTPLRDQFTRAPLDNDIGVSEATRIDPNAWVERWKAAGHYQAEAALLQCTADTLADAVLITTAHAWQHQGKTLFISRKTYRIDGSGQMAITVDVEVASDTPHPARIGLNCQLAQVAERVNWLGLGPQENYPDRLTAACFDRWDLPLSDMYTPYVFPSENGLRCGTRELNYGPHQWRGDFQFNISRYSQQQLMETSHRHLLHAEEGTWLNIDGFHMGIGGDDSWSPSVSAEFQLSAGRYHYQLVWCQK

| Compound | extinction change per minute [1] | relative gradient of the calibration curve [2] | sensitivity as chromogenic enzyme substrate for CEDIA [3] | lambda max [4] | ε (extinction coefficient) [4] |
| --- | --- | --- | --- | --- | --- |
| O=[N+]([O-])c1ccccc1O[C@@H]1O[C@H](CO)[C@H](O)[C@H](O)[C@H]1O [oNPG, 2-nitrophenyl-β-D-galactopyranoside, reference compound] | 0.024 mE/min. | 100% | low sensitivity | – | – |
| O=[N+]([O-])c1ccc(O[C@@H]2O[C@H](CO)[C@H](O)[C@H](O)[C@H]2O)c(Cl)c1 [Example 2-Cl-4-NPG, 2-chloro-4-nitrophenyl-β-D-galactopyranoside, reference compound] | 0.085 mE/min. | 494% | – | – | – |
| O=[N+]([O-])c1ccc(O[C@@H]2O[C@H](CO)[C@H](O)[C@H](O)[C@H]2O)c(C(F)(F)F)c1 [Example 2-CF3-4-NPG, 2-trifluoromethyl-4-nitrophenyl-β-D-galactopyranoside] | 0.109 mE/min. | 528% | – | – | – |
| O=[N+]([O-])c1ccc(O)c(C(F)(F)F)c1 [2-CF3-4-nitrophenol, 2-Trifluoromethyl-4-nitrophenol] | – | – | – | 384 nm | 18800 L/mol/cm |
| O=[N+]([O-])c1ccc(O)c(Cl)c1 [2-Cl-4-nitrophenol] | – | – | – | 405 nm | 16600 L/mol/cm |
| O=[N+]([O-])c1ccccc1O [2-nitrophenol] | – | – | – | 408 nm | 2040 L/mol/cm |
| N#Cc1cc([N+](=O)[O-])ccc1O[C@@H]1O[C@H](CO)[C@H](O)[C@H](O)[C@H]1O [Example 2-CN-4-NPG, 2-cyano-4-nitrophenyl-β-D-galactopyranoside] | 0.150 mE/min. | 561% | – | – | – |
| N#Cc1cc([N+](=O)[O-])ccc1O [2-CN-4-nitrophenol, 2-Hydroxy-5-nitrobenzonitrile] | – | – | – | 376 nm | 15700 L/mol/cm |
